Test results as given in US8466144B2, “Muscarinic antagonists with parp and sir modulating activity as cytoprotective agents” (Proteosys AG, priority 2004, dated 2013).

Legend:
A 549 cells = assay: LPS challenge, cell survival by Trypan Blue; format: cell-based; details: LPS 100 ng/ml for 60 min
Protocol: (§1) Cell pellets were further investigated by Western blot staining with anti Cox-2 and anti iNOS antibodies of 1D polyacrylamide gels.
(§2) Cell survival was assessed by Trypan Blue staining.

3T3 fibroblasts = assay: LPS challenge, cell survival by Trypan Blue; format: cell-based; details: LPS 100 ng/ml for 60 min
Protocol: as §1, §2

[1] = tested on: undifferentiated V56 embryonic stem cells; assay: LPS challenge, cell survival by Trypan Blue; format: cell-based; details: LPS 100 ng/ml for 60 min
Protocol: as §1, §2

[2] = tested on: neurally differentiated V56 embryonic stem cells; assay: LPS challenge, cell survival by Trypan Blue; format: cell-based; details: LPS 100 ng/ml for 60 min
Protocol: as §1, §2

[3] = target: T1, recombinant monomeric PARP-1 (Homo sapiens, UniProt P09874); assay: PARP inhibition assay (R&D Systems); format: biochemical; details: FIG. 4b
T1 construct: purchased R&D Systems TA4669
T1 sequence (P09874 whole entry): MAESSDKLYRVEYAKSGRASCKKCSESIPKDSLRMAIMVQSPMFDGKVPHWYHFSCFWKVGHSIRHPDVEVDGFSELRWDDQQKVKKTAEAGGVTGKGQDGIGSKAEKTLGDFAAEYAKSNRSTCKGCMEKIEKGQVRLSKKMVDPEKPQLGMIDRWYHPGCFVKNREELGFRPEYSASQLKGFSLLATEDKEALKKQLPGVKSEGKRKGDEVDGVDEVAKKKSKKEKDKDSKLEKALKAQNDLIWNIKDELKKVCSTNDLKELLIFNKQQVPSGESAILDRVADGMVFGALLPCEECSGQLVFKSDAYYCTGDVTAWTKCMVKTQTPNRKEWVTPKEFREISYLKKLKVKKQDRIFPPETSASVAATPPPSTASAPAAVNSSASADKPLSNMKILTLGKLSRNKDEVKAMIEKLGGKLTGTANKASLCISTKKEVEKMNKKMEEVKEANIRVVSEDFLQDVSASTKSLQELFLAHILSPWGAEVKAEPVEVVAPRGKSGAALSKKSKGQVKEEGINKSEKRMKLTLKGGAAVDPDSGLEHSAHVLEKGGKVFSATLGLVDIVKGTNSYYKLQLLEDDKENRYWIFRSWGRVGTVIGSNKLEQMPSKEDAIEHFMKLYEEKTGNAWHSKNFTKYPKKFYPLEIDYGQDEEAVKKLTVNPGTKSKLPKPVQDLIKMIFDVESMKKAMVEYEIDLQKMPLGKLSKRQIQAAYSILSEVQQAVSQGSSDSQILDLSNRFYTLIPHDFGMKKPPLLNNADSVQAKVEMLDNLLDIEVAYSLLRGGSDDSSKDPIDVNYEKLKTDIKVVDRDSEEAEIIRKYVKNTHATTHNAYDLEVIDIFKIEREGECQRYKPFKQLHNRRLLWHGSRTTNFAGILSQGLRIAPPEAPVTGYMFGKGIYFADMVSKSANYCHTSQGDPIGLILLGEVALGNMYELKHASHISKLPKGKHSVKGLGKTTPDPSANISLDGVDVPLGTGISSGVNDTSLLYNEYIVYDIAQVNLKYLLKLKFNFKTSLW
Text: A PARP inhibition assay from R&D Systems was used (Cat.No. TA4669) according to instructions of the supplier.
Under cellular conditions PARP-1 poly-ADP-ribosylates a host of nuclear proteins, including topoisomerase 1, 14-3-3 g and PARP-1 itself. Thus under cellular conditions, the self-modification of PARP-1 and dimerization are regulating its activity, moreover there is a tight interplay with PARG (poly-ADP- ribosyl-glycohydroxylase).

[4] = tested on: neurons from D3 embryonic stem (ES) cells; assay: Cell culture model for chemical ischemia and neuroprotection (calcium imaging of surviving neurons); format: cell-based, mice; details: β-methyl-cyclodextrin or filipin
Protocol: For all experiments, D3 embryonic stem (ES) cells derived from 129/sv mice [Okabe et al., 1996] were cultivated for 12 days, with passages on days 2, 4, 7 and 9 as described previously [Sommer et al., 2004]. Insult conditions: Cells (24-well plates) were pre-incubated with or without 20 nM EPO in fresh medium for 24 hours at 37° C. Cells were rinsed once with low K^+ solution (140 mM NaCl, 4.7 mM KCl, 1.2 mM KH2PO4, 2.5 mM CaCl2, 1.2 mM MgSO4, 11 mM glucose, 15 mM Hepes-NaOH, pH 7.35). Cells (either with or without EPO pre-incubation) were incubated for up to 45 min (37° C.) with either low K^+ solution or with glucose-free low K^+ solution supplemented with 1 mM KCN (chemical ischemia solution [Kume et al., 2002]). Vitality control to asses numbers of surviving neurons was performed by a brief stimulation with a low dose of glutamate (10 μM).
Functional tests by calcium imaging were performed essentially as described [Sommer et al., 2004]. Briefly, cells were loaded with 2 μM of fura-2 AM in DMEM for 45 min at 37° C. in the dark. Measurements of relative changes in [Ca^2+] were made on an inverted epifluorescence microscope (Olympus IX70 S1F2) with a Polychrom IV Monochromator (Xe-lamp, USHIO). Excitation wavelengths (λ1, λ2) and the emission wavelength were 340, 380 and 510 nm, respectively. […]

SIR-2 = target: T2, SIR-2 (Mus musculus, UniProt Q923E4); assay: Affinity tag enrichment from cell extracts (1D PAGE, MALDI-TOF, immunostaining); format: binding
T2 construct: endogenous in cells; host or cells: D3 embryonic stem cells / V56 embryonic stem cells (crude extract)
T2 sequence (Q923E4 1-737): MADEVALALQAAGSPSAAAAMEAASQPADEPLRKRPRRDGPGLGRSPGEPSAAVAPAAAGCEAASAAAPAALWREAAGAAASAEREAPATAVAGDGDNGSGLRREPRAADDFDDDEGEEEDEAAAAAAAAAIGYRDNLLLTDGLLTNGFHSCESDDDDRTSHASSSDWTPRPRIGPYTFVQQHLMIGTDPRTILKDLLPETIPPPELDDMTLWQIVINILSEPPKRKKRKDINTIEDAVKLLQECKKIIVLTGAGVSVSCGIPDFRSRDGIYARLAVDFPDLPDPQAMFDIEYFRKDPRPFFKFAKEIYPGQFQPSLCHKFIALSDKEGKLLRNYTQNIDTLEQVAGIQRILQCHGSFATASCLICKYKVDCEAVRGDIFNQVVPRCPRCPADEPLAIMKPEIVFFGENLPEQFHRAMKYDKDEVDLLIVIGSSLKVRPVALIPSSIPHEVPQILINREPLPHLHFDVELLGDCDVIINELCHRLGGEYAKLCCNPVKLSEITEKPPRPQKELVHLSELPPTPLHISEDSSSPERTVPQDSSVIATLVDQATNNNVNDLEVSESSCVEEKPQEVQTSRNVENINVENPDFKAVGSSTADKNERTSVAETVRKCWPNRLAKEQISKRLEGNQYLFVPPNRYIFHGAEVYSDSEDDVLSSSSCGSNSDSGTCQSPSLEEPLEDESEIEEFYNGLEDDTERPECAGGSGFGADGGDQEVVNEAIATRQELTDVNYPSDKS
Protocol: (§3) A reactive —SCN group is introduced which binds to lysines in or near the binding site of the compound. A biotinylated linker serves for enrichment of bound protein. The synthesis is described in FIG. 1.
(§4) The affinity reagent 11 was used to bind the target covalently from fractionations of crude cell extracts of D3 ES cells and other cell lines, subsequently the affinity purified material was analysed by 1D PAGE, immunostaining, and mass spectrometry.
(§5) The subsequent fractionation, isolation and further analysis was performed according to published standard procedures (Sommer et al. 2004). A commercial anti-PARP antibody was used for staining Western blots. Mass spectrometry for independent identification of pirenzepine-tagged proteins was performed as described elsewhere recently (Vogt et al., 2003, Cahill et al., 2003).
(§6) A reactive —SCN group binds to lysins in or near the binding site of the compound. A biotinylated linker serves for enrichment of bound protein. The final affinity reagent, thiocyanato-11-[2-(4-biocytinyl-piperazin-1-yl)-acetyl]-5,11-dihydro-benzo[e]pyrido [3,2-b] [1,4] diazepin-6-one (compound (11), FIG. 1), was used to bind the target covalently from fractionations of crude cell extracts of D3 embryonic stem cells, subsequently the affinity purified material was analysed by 1D PAGE (FIG. 3a), mass spectrometry and immunostaining. […]

PARP-1 = assay: as above; format: binding
Sequence of PARP-1 (P11103 215-1013 limits assumed): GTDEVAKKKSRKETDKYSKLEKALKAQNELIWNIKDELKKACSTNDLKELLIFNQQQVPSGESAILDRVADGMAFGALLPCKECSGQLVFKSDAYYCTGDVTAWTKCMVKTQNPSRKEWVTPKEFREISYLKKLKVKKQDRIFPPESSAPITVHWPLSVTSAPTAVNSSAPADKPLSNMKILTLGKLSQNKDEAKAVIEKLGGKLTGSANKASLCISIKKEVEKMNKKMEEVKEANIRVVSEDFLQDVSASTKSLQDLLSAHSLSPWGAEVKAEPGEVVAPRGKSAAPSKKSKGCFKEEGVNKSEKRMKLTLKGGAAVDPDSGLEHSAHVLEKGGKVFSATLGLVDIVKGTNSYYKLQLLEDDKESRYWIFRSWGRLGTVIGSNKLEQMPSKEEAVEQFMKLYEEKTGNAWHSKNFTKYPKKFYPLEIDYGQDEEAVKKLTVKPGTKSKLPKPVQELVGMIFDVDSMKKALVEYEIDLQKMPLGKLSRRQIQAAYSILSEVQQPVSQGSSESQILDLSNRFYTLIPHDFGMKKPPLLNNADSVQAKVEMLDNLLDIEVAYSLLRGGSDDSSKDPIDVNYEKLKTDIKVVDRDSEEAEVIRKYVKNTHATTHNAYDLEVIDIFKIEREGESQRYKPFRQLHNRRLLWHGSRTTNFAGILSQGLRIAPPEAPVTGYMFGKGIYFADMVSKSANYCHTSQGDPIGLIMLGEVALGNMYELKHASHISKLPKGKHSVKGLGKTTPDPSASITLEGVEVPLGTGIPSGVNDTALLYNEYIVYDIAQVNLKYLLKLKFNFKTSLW
Protocol: as §3, §4, §5, §6

Row | PARP-1 inhibition (in words) [3] | Compound | protection from LPS challenge (A 549 cells) | protection from LPS challenge (3T3 fibroblasts) | protection from LPS challenge [1] | protection from LPS challenge [2] | neuroprotective effect in the presence of raft-disrupting conditions [4] | interaction with SIR-2 (SIR-2) | interaction with PARP-1 (PARP-1)
1 | rather weak PARP-1 inhibitor | CN1CCN(CC(=O)N2c3ccccc3C(=O)Nc3cccnc32)CC1 [Pirenzepine] | protect from LPS challenge | protect from LPS challenge | protect from LPS challenge | protect from LPS challenge | does not occur |  | 
2 |  | thiocyanato 11-[2-(4-biocytinyl-piperazin-1-yl)-acetyl]-5,11-dihydro-benzo[e]pyrido[3,2-b][1,4]diazepin-6-one [affinity tag] |  |  |  |  |  | interacts with both proteins | interacts with both proteins
